Measurements as given in paper PMC12343078, “PeptideMiner—neuropeptide discovery across the animal kingdom” (GigaScience, 2025).
Entries after “also recorded” stand apart in the source; their conditions may differ. Positions of bridges follow the written chain, without caps; N, C: chain ends. Non-standard residues stand in square brackets, D forms with d. Chains are numbered I, II in the order given. No end group written: not given here. Gla = N[C@@H](CC(C(=O)O)C(=O)O)C(=O)O

Target: T1, human insulin receptor-B (hIR-B) (Homo sapiens, UniProt P06213)
T1 construct: expressed in transfected cells; lysate captured on an anti-IR antibody-coated plate
T1 sequence (P06213 28-758 limits assumed): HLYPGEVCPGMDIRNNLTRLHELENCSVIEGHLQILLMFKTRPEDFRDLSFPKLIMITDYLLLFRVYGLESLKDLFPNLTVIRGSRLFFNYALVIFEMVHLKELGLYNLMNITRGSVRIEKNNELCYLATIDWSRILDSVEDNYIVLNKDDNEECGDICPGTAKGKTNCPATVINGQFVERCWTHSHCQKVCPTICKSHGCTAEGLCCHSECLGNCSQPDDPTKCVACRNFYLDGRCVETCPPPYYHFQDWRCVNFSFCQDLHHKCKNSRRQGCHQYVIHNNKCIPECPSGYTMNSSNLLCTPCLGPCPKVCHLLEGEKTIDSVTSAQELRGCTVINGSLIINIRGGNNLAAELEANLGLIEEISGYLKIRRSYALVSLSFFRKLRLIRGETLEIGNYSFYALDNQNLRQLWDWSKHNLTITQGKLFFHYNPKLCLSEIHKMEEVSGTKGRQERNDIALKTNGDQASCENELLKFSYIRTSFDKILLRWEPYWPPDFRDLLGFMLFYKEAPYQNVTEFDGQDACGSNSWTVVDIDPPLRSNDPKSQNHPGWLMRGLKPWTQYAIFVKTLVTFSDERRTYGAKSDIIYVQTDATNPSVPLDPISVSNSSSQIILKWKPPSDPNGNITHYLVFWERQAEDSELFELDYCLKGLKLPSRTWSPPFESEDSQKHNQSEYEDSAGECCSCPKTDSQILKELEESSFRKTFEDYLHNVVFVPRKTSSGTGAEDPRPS
T1 sequence (P06213 763-1382 limits assumed): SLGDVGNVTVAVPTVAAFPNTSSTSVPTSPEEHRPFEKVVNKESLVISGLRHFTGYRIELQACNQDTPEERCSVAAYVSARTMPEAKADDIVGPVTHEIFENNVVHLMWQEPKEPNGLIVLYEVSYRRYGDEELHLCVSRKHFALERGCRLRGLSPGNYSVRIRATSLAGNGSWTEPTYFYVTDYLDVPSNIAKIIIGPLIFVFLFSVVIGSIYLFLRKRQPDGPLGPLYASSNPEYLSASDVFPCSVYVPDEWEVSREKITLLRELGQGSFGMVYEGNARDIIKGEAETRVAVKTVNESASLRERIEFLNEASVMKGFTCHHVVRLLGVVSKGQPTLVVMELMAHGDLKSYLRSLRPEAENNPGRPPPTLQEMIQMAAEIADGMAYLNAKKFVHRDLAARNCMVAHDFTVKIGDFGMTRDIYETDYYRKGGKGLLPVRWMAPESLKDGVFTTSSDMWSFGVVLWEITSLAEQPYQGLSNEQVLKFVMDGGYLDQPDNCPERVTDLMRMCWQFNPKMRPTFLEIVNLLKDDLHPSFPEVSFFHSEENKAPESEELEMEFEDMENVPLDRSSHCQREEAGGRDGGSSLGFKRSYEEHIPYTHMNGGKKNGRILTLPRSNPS
Test: Competition binding to hIR-B against Eu-labeled human insulin
Description: Receptor binding was measured as described previously. […] Cells were serum-starved for 4 hours before lysis. Lysates were captured in a 96-well plate previously coated with anti-IR antibody. […] After washing, time-resolved fluorescence was measured using 340-nm excitation and 612-nm emission filters with the BMG Lab Technologies Polarstar fluorometer.

Substance	hIR-B binding, result in words
I: NSDTPKHRCGSELADQYVYLCHGERNDA-NH2 / II: GIV[Gla]VCCDNPCTVATLRTFCH (disulfide I:9-II:7, I:21-II:20, II:6-II:11; C-terminus assumed) [Con-Ins G4b]	low nanomolar binding
I: NSDTPKHRCVSELADQYVQLCH-NH2 / II: GIV[Gla]VCCDNPCTVATLRTFCH (disulfide I:9-II:7, I:21-II:20, II:6-II:11; C-terminus assumed) [Con-Ins G3c]	completely abolishes hIR-B binding
I: TNIPATLILQKHRCGSELADQYVQLCH-NH2 / II: GIV[Gla]VCCDNPCTVATLRTFCH (disulfide I:14-II:7, I:26-II:20, II:6-II:11; C-terminus assumed) [Con-Ins G7]	potent hIR-B binding; also recorded: low nanomolar binding
